# Key:
# Type in all cases: cell-based
# [1] = target: T1, human muscarinic M1 receptor (Homo sapiens, UniProt P11229); assay: Alphascreen Surefire phospho-ERK1/2 functional assay, M1; details: CHO cells stably expressing human M1, phospho-ERK1/2
# T1 construct: expressed in transfected cells
# T1 sequence (P11229 1-460): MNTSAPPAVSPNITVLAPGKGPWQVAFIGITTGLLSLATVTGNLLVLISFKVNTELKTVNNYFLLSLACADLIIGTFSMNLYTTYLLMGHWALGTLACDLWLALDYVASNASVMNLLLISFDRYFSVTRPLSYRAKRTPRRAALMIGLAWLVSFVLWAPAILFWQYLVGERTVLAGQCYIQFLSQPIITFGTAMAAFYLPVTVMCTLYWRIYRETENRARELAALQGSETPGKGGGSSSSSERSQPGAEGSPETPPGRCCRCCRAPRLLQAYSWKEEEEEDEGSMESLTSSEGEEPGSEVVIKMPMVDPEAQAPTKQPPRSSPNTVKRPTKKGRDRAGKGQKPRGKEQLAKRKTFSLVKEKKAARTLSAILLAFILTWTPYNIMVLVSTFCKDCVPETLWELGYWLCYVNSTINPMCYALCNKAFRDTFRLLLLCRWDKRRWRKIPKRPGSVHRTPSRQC
# Procedure: (§1) ERK1/2 phosphorylation is a downstream consequence of both Gq/11 and Gi/o protein coupled receptor activation, making it highly suitable for the assessment of M1, M3 (Gq/11 coupled) and M2, M4 receptors (Gi/o coupled), rather than using different assay formats for different receptor subtypes. CHO cells stably expressing the human muscarinic M1, M2, M3 or M4 receptor were plated (25K/well) onto 96-well tissue culture plates in MEM-alpha+10% dialysed FBS. Once adhered, cells were serum-starved overnight. Agonist stimulation was performed by the addition of 5 μL agonist to the cells for 5 min (37° C.). Media was removed and 50 μL of lysis buffer added.
# [2] = target: T2, human muscarinic M4 receptor (Homo sapiens, UniProt P08173); assay: Alphascreen Surefire phospho-ERK1/2 functional assay, M4; details: for Emax: CHO cells stably expressing human M4, read-out: % Emax cf. ACh, M4
# T2 construct: expressed in transfected cells
# T2 sequence (P08173 1-479): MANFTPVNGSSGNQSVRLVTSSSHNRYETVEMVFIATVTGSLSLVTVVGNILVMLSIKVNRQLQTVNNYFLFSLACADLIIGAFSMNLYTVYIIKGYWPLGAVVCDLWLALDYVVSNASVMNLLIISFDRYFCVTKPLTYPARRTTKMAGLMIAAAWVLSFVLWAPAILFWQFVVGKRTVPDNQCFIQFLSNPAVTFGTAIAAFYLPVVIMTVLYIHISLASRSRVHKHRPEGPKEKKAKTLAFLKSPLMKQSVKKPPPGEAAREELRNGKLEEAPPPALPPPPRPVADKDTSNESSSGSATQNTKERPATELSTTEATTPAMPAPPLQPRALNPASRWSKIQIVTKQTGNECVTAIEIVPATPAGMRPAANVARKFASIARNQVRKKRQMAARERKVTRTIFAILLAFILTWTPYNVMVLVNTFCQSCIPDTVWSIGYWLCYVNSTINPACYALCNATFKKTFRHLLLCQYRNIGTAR
# Procedure: as §1
# [3] = target: T3, human muscarinic M2 receptor (Homo sapiens, UniProt P08172); assay: Alphascreen Surefire phospho-ERK1/2 functional assay, M2
# T3 construct: expressed in transfected cells
# T3 sequence (P08172 1-466): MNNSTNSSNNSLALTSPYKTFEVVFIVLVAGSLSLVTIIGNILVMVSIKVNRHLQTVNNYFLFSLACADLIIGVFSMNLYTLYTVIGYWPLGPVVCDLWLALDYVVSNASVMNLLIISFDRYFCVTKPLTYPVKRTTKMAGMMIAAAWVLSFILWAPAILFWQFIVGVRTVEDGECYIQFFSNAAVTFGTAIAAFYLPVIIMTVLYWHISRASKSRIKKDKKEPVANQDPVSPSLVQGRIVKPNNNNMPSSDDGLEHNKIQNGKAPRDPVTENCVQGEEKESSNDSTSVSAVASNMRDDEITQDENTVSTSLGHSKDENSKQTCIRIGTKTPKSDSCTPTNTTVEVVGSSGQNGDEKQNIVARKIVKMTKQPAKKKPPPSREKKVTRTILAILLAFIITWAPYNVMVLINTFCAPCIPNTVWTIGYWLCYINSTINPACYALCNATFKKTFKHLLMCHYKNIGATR
# Procedure: as §1
# [4] = target: T4, human muscarinic M3 receptor (Homo sapiens, UniProt P20309); assay: Alphascreen Surefire phospho-ERK1/2 functional assay, M3; details: for Emax: CHO cells stably expressing human M3, read-out: % Emax cf. ACh, M3
# T4 construct: expressed in transfected cells
# Procedure: as §1
# T4 sequence (P20309 whole entry): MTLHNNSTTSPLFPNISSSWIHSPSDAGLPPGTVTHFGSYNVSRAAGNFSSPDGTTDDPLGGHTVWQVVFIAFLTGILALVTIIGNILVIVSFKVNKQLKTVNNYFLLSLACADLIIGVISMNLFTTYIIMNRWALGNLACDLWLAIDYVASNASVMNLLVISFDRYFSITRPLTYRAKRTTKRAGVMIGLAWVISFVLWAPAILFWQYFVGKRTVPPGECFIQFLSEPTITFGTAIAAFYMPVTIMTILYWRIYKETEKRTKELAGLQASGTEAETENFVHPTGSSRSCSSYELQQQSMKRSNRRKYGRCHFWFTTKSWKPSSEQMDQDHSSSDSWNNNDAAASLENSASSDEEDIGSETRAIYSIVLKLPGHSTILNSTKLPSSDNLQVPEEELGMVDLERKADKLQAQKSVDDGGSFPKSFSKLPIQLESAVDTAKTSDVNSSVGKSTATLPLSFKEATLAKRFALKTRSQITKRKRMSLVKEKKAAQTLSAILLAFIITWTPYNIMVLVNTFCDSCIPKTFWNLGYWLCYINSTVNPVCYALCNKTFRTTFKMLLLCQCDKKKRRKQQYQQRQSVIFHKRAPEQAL
Compound,pEC50 M1 [1],"Emax ([1]; read-out: % Emax cf. ACh, M1)",Emax [2],"EC50 ([2]; CHO cells stably expressing human M4, read-out: pEC50 M4 (converted))","Emax ([3]; CHO cells stably expressing human M2, read-out: % Emax cf. ACh, M2)","EC50 ([3]; CHO cells stably expressing human M2, read-out: pEC50 M2 (converted))",Emax [4],"EC50 ([4]; CHO cells stably expressing human M3, read-out: pEC50 M3 (converted))"
"CC(C)(C)NC(=O)C1CCN([C@H]2C[C@H]3CC[C@@H](C2)N3c2nc(C(F)(F)F)no2)CC1.Cl [Example 1-1, N-(tert-butyl)-1-((1R,3r,5S)-8-(3-(trifluoromethyl)-1,2,4-oxadiazol-5-yl)-8-azabicyclo[3.2.1]octan-3-yl)piperidine-4-carboxamide hydrochloride]",7.17,92%,32%,0.12 µM,7%,> 20 µM,3%,> 20 µM
"CC(=O)OCC[N+](C)(C)C [Acetylcholine, reference compound]",,,108%,,,,102%,

# From patent US11999745B2, “Pharmaceutical compounds” (Heptares Therapeutics Limited, priority 2020, dated 2024)
